Measurements taken from US20100286247A1, “Methods of Protection from Oxidative Stress” (Trustees of Boston University, priority 2005, published 2010).
{P} = phosphate

Columns and labels:
p21/Cip1/Waf1 protein = assay: Western blot of p21/Cip1/Waf1; format: cell-based, human; details: by 36-48 hours, sustained through 72 hours; 40 μM TO, 100 μM pTT
Protocol: (§1) Western blot analysis of proteins from cells treated and harvested in parallel with DCF time course studies was conducted as described above. Membranes were reacted with antibodies to total p53/DO-1 (1:1000 dilution, Oncogene Research Products, Cambridge, Mass.), anti-phoso-p53 (Ser-15) (1:1000 dilution, Cell Signaling Technology, Beverly, Mass.), and p21/Cip1/Waf1 (1:500 dilution, Transduction Laboratories, Lexington, Ky.), followed by appropriate secondary antibodies diluted 1:2000.

total p53 protein = assay: Western blot of total p53 (DO-1); format: cell-based, human; details: by 36-48 hours, sustained through 72 hours; 40 μM TO, 100 μM pTT
Protocol: as §1

GPX protein = assay: Western blot analysis of antioxidant enzymes: GPX protein; format: cell-based, human; details: 40 μM, within several hours, up to 168 hours
Protocol: (§2) Cell lysates were harvested at various intervals after T-oligo treatment in harvest buffer containing 0.25 M Tris HCl (pH 7.5), 0.375 M NaCl, 2.5% sodium deoxycholate, 1% Triton X-100, 25 mM MgCl2, 0.1 mg/ml aprotinin (Sigma, St. Louis, Mo.) and 1 mM phenylmethyl sulfonyl flouride (PMSF) (Sigma). Samples were sheared through a fine needle syringe, sonicated, centrifuged and the supernatant was isolated. Total cellular protein concentrations were determined spectrophotometrically with the Bio-Rad protein assay (Bio-Rad Laboratories, Inc, Hercules, Calif.). Equal amounts of total protein from each sample (35-65 μg) were separated by 10-15% polyacrylamide gel electrophoresis, and transferred to nitrocellulose membranes. […]
(§3) Membranes were reacted with antibodies diluted in Tris-based buffer with nonfat milk powder as a blocking agent. […] Antibody binding was detected with electrochemical luminescence (ECL kit, NEN Life Science Products, Inc.) and exposure to XAR film (Eastman Kodak Co.).
(§4) The levels of superoxide dismutase 1 (SOD1), superoxide dismutase 2 (SOD2), catalase (Cat) and glutathione peroxidase (GPX) were determined in newborn fibroblasts at different time points after treatment with 40 μM of T-oligo in comparison with cells treated either with 40 μM of control complementary oligo pCTAACCCTAAC (SEQ ID NO: 22) or diluent. […]

human dermal fibroblasts = details: treatment for 7 days, Li et al.; cited from earlier work
SOD1 protein = assay: Western blot analysis of antioxidant enzymes: SOD1 protein; format: cell-based, human; details: 40 μM, within several hours, up to 168 hours
Protocol: as §2, §3, §4

[1] = 100 μM pTT, in vitro and in mouse models in vivo; cited from earlier work
[2] = system: primary human newborn dermal fibroblasts; assay: MTS viability assay; format: cell-based; details: 100 μM pTT
Text: The CellTiter 96 Aqueous One Solution Cell Proliferation Assay, a version of the MTT assay, (Promega Corp., Madison, Wis.) is generally used as a eukaryotic cell viability and proliferation assay.^180 It has also been used to measure mitochondrial dysfunction,^181 because the assay measures the reduction of a tetrazolium compound [3-(4,5-dimethylthiazol-2-yl)-5-(-3-carboxymethoxyphenyl)-2-(4-sulfophenyl)-2H-tetrazolium] to formazan in viable mitochondria. The MTS assay utilizes a water-soluble form of the tetrazolium reagent in the original MIT assay. The formazan product is measured by absorbance at 492 nm.
Equal numbers of cells were seeded into 96-well tissue culture plates, and paired wells were treated once with pTT or diluent control as described above. At 24, 48 and 72 hours cell viability was assayed using the MTS assay and an ELIZA plate reader (Tecan Spectra II Model F039002, Austria) to measure absorbance at 492 nm. The experiments were conducted in parallel with cell yield Coulter counts, using the same donor cells.
Cell yields of pTT-treated fibroblasts were compared to diluent using 2-way ANOVA and a total of four different experiments, to identify significant difference between treatment groups as a function of cell number and time. The parallel MTS assay also utilized the 2-way ANOVA, to compare changes in OD at 492 nm as a function of time and treatment modality.

[3] = system: extracellular H2O2 from newborn fibroblasts; assay: Extracellular hydrogen peroxide generation assay (horseradish peroxidase); format: cell-based, human; details: 100 μM, two days treatment
Protocol: This assay was described by Ruch et al. for measurement of H2O2 production by macrophages and neutrophils^93 and modified for cultured cytokine-stimulated human lung fibroblasts by Thannickal et al.^94 Briefly, it utilizes horseradish peroxidase (HRP) to catalyze H2O2-dependent dimerization of tyrosine in homovanillic acid (HVA), where the H2O2 is the extracellular fraction of H2O2 produced by stimulated cells. Fibroblasts were seeded at 0.5×10^4 cells/cm^2 and treated the following day with diluent, 100 μM pTT, 100 μM pAA, 40 μM TO or 40 μM TOC1 for two days. These doses were determined in previous studies to be the optimal effective doses to achieve p53 induction and cell cycle arrest in fibroblasts within the parameters used in these investigations (cell seeding density and time of treatment).^13,142 An assay medium consisting of sterile Hanks' Balanced Salt Solution (HBSS), HRP (5 U/ml) and HVA ([…]) was added to cells after removal of the T-oligo-supplemented medium. […] Each sample was fluorometrically analyzed by excitation of the dimerized tyrosine product at 323 nm with emission measured at 423 nm (Perkin-Elmer LS-5B Luminescence Spectrometer). The same cells were then harvested and counted by Coulter Counter. […] Using the cell count results, H2O2 production was expressed as a function of time and cell number (pmol/min/million cells). […]

| Substance | p21 protein response, TO vs pTT (p21/Cip1/Waf1 protein) | total p53 (DO-1) protein response, TO vs pTT (total p53 protein) | GPX protein level (GPX protein) | cells expressing senescence-associated-β-galactosidase after prolonged treatment (human dermal fibroblasts) | SOD1 protein level (SOD1 protein) | nucleotide excision DNA repair and UV resistance [1] | cell viability (MTS formazan absorbance) vs diluent ([2]; 24-72 hours, 2-way ANOVA p=0.2588) | mitochondrial reductive activity per cell (MTS absorbance per Coulter-counted cell) ([2]; p=0.0093) | extracellular H2O2 production [3] |
| --- | --- | --- | --- | --- | --- | --- | --- | --- | --- |
| pGTTAGGGTTAG (5' {P}, sugars by position and backbone not given here) [TO] | greater than to pTT | greater than to pTT | induced | over 60% | induced | – | – | – | – |
| 5′-phosphorylated thymidine dinucleotides [pTT] | – | – | – | – | – | stimulates enhanced nucleotide excision DNA repair and resistance to subsequent UV irradiation | no significant decrease in cell viability | significant increase in mitochondrial reductive activity per cell | does not yield extracellular H2O2 |
